Experimental data published in publication PMC12466757, “1,5-Diarylidene-4-Piperidones as Promising Antifungal Candidates Against Cryptococcus neoformans” (Antibiotics, 2025).
≈ marks a conversion by molar mass, not a printed value.

Tests used:
[1] = in vitro; settings: human, Caco-2
[2] = system: Cryptococcus neoformans (DSM11959); experiment: MIC assay against C. neoformans; type: cell-based; settings: 35 °C, 24–48 h
[3] = system: Staphylococcus aureus (ATCC 6538); experiment: Antibacterial liquid MIC determination, S. aureus; type: cell-based; settings: ATCC6538, Gram-positive
[4] = system: Aspergillus flavus (DSM 1959); experiment: MIC assay, filamentous fungus A. flavus; type: cell-based; settings: DSM1959, DSM 1959, plant pathogen, 25 °C, 48–72 h
[5] = system: Colletotrichum graminicola (DSM 63127); experiment: MIC assay, filamentous fungus C. graminicola; type: cell-based; settings: DSM63127, DSM 63127, plant pathogen, 25 °C, 48–72 h
[6] = system: Candida albicans (DSM 10697); experiment: MIC assay, pathogenic yeast C. albicans; type: cell-based; settings: DSM10697, 35 °C, 24–48 h
[7] = system: Fusarium graminearum (DSM 1095); experiment: microbe, parasite or virus in culture; type: cell-based; settings: DSM1095, read-out: MIC F. graminearum
[8] = system: Magnaporthe oryzae; experiment: microbe, parasite or virus in culture; type: cell-based; settings: Pyricularia oryzae, read-out: MIC M. oryzae
[9] = system: A. fumigatus (DSM 819); experiment: MIC assay, filamentous fungus A. fumigatus; type: cell-based; settings: Aspergillus fumigatus, DSM819; DSM 819, human pathogen; 35 °C, 24–48 h
[10] = system: Trichophyton rubrum (DSM16111); experiment: MIC assay, filamentous fungus T. rubrum; type: cell-based; settings: DSM16111, human pathogen, 35 °C, 24–48 h
[11] = system: Candida auris (DSM 21092); experiment: MIC assay, pathogenic yeast C. auris; type: cell-based; settings: Candidozyma auris, DSM21092, 35 °C, 24–48 h
[12] = system: Candida tropicalis (DSM 9419); experiment: MIC assay, pathogenic yeast C. tropicalis; type: cell-based; settings: DSM9419, 35 °C, 24–48 h
[13] = system: Candida glabrata (DSM 11226); experiment: MIC assay, pathogenic yeast C. glabrata; type: cell-based; settings: Nakaseomyces glabratus, DSM11226, 35 °C, 24–48 h
[14] = system: Penicillium verrucosum (DSM 12639); experiment: MIC assay, filamentous fungus P. verrucosum; type: cell-based; settings: DSM12639, DSM 12639, plant pathogen, 25 °C, 48–72 h
[15] = system: Microdochium bolleyi (DSM 62073); experiment: MIC assay, filamentous fungus M. bolleyi; type: cell-based; settings: 48–72 h
[16] = system: various human cells, i.e., A498, BEAS-2B, Caco-2, HaCaT, and HepG2
[17] = Cytotoxicity, resazurin cell viability assay, A498; settings: human
[18] = Cytotoxicity, resazurin cell viability assay, BEAS-2B; settings: human
[19] = Cytotoxicity, resazurin cell viability assay, HaCaT; settings: human
[20] = Cytotoxicity, resazurin cell viability assay, HepG2; settings: human
[21] = Cytotoxicity, resazurin cell viability assay, Caco-2; settings: human
[22] = Cryptococcus neoformans, DSM11959, C. neoformans DSM 11959, lowest concentration totally inhibiting growth
[23] = C. neoformans DSM 11959, lowest concentration totally inhibiting growth
[24] = DSM62073, DSM 62073, plant pathogen, 25 °C

CCN1C/C(=C\c2ccccc2F)C(=O)/C(=C/c2ccccc2F)C1 [2j]
CC50 at 48 h [1]: 68.3 µM | MIC [2, 22]: 250 µM (≈ 84.8 µg/mL)

CCCCOc1ccc(/C=C2\CN(S(C)(=O)=O)C/C(=C\c3ccc(OCCCC)cc3OCCCC)C2=O)c(OCCCC)c1 [6h]
MIC [2, 23]: >250 µM | MIC [2, 22]: > 250 µM

CCCCOc1ccc(/C=C2\CN(C(=O)OCc3ccccc3)C/C(=C\c3ccc(OCCCC)cc3OCCCC)C2=O)c(OCCCC)c1 [7h]
MIC [2, 23]: >250 µM | MIC [2, 22]: > 250 µM

CCN1C/C(=C\c2ccc(C(F)(F)F)cc2)C(=O)/C(=C/c2ccc(C(F)(F)F)cc2)C1 [1f]
CC50 at 48 h [1]: 47 µM | MIC [2, 22]: 250 µM (≈ 110 µg/mL)

C=CCOc1ccc(/C=C2\CN(CC)C/C(=C\c3ccc(OCC=C)cc3OCC=C)C2=O)c(OCC=C)c1 [2g]
MIC [2, 23]: >250 µM | MIC [2, 22]: > 250 µM

CCN1C/C(=C\c2ccc(Cl)cc2)C(=O)/C(=C/c2ccc(Cl)cc2)C1 [1e]
CC50 at 48 h [1]: 98.6 µM | MIC [2, 22]: 250 µM (≈ 93.1 µg/mL)

O=C1/C(=C/c2ccc[nH]2)CN(Cc2ccccc2)C/C1=C\c1ccc[nH]1 [3j]
CC50 at 48 h [1]: 26.1 µM | MIC [3]: 250 µM (≈ 85.9 µg/mL) | MIC [2, 22]: 62.5 µM (≈ 21.5 µg/mL)

CCCCOc1ccc(/C=C2/C(=O)/C(=C/c3ccc(OCCCC)cc3OCCCC)C3CCC2N3C)c(OCCCC)c1 [2n]
MIC [2, 22]: > 250 µM

CCN1C/C(=C\c2cnc3ccccc3c2)C(=O)/C(=C/c2cnc3ccccc3c2)C1 [2l]
CC50 at 48 h [1]: 30 µM | MIC [3]: 250 µM (≈ 101 µg/mL) | MIC [2, 22]: 250 µM (≈ 101 µg/mL)

CCN1C/C(=C\c2ccc(C)cc2)C(=O)/C(=C/c2ccc(C)cc2)C1 [1b, 1-ethyl-3,5-bis((E)-4-methylbenzylidene)piperidin-4-one]
CC50 at 48 h [1]: 86.2 µM | MIC [2, 22]: 250 µM (≈ 82.9 µg/mL)

CCCCOc1ccc(/C=C2\CC(C)C/C(=C\c3ccc(OCCCC)cc3OCCCC)C2=O)c(OCCCC)c1 (centres unmarked) [9h]
MIC [2, 22]: > 250 µM

CCCCOc1ccc(/C=C2\CN(C(=O)OC(C)(C)C)C/C(=C\c3ccc(OCCCC)cc3OCCCC)C2=O)c(OCCCC)c1 [5h]
MIC [2, 23]: >250 µM | MIC [2, 22]: > 250 µM

CCCCOc1ccc(/C=C2\CN(Cc3ccccc3)C/C(=C\c3ccc(OCCCC)cc3OCCCC)C2=O)c(OCCCC)c1 [3h]
MIC [4]: 31.2 µM (≈ 20.4 µg/mL) | MIC [5]: 250 µM (≈ 163 µg/mL) | MIC [6]: 62.5 µM (≈ 40.9 µg/mL) | MIC [7]: 125 µM (≈ 81.7 µg/mL) | MIC [8]: 7.8 µM (≈ 5.1 µg/mL) | MIC [9]: 31.2 µM (≈ 20.4 µg/mL) | MIC [10]: 7.8 µM (≈ 5.1 µg/mL) | CC50 at 48 h [1]: 629 µM | MIC [11]: 7.8 µM (≈ 5.1 µg/mL) | MIC [12]: 125 µM (≈ 81.7 µg/mL) | MIC [13]: 7.8 µM (≈ 5.1 µg/mL) | MIC [14]: 62.5 µM (≈ 40.9 µg/mL) | MIC [2, 22]: 7.8 µM (≈ 5.1 µg/mL) | MIC ([15]; DSM62073, 25 °C): 7.8 µM (≈ 5.1 µg/mL) | MIC [15, 24]: 31.2 µM (≈ 20.4 µg/mL)

CCN1C/C(=C\c2ccc(OC)cc2OC)C(=O)/C(=C/c2ccc(OC)cc2OC)C1 [2a, 3,5-bis((E)-2,4-dimethoxybenzylidene)-1-ethylpiperidin-4-one]
MIC [2, 23]: >250 µM | MIC [2, 22]: > 250 µM

CCN1C/C(=C\c2ccc3c(c2)OCO3)C(=O)/C(=C/c2ccc3c(c2)OCO3)C1 [2i]
CC50 at 48 h [1]: 152 µM | MIC [2, 22]: 250 µM (≈ 97.9 µg/mL)

CCCCOc1ccc(/C=C2\CC(C(C)(C)C)C/C(=C\c3ccc(OCCCC)cc3OCCCC)C2=O)c(OCCCC)c1 (centres unmarked) [10h]
MIC [2, 22]: > 250 µM

CCN1C/C(=C\c2ccc(C#N)cc2)C(=O)/C(=C/c2ccc(C#N)cc2)C1 [1c]
CC50 at 48 h [1]: 70.3 µM | MIC [2, 22]: 250 µM (≈ 88.4 µg/mL)

CCCCOc1ccc(/C=C2\CCC/C(=C\c3ccc(OCCCC)cc3OCCCC)C2=O)c(OCCCC)c1 [8h]
MIC [2, 23]: >250 µM | MIC [2, 22]: > 250 µM

CCCCOc1ccc(/C=C2\CN(Cc3ccccc3)C/C(=C\c3ccc(OCCCC)cc3)C2=O)cc1 [2o]
CC50 at 48 h [1]: 455 µM | CC50 (range depending on the cell model) [16]: 64.9 to >1000 | MIC [2, 22]: 125 µM (≈ 63.7 µg/mL)

CCCCOc1ccc(/C=C2\CN(CC)C/C(=C\c3ccc(OCCCC)c(OCCCC)c3OCCCC)C2=O)c(OCCCC)c1OCCCC [2m]
MIC [4]: > 250 µM | MIC [5]: > 250 µM | MIC [6]: 125 µM (≈ 92 µg/mL) | MIC [7]: > 250 µM | MIC [8]: 62.5 µM (≈ 46 µg/mL) | MIC [9]: 250 µM (≈ 184 µg/mL) | MIC [10]: 31.2 µM (≈ 23 µg/mL) | CC50 at 48 h [1]: 687 µM | MIC [11]: 31.2 µM (≈ 23 µg/mL) | MIC [12]: 250 µM (≈ 184 µg/mL) | MIC [13]: 15.6 µM (≈ 11.5 µg/mL) | MIC [14]: > 250 µM | MIC ([2]; Cryptococcus neoformans, DSM11959, C. neoformans DSM 11959, […]): 62.5 µM (≈ 46 µg/mL) | MIC [15, 24]: > 250 µM

CCCCOc1ccc(/C=C2\CN(CC)C/C(=C\c3ccc(OCCCC)cc3OCCCC)C2=O)c(OCCCC)c1 [2h, 3,5-bis((E)-2,4-dibutoxybenzylidene) -1-ethylpiperidin-4-one]
MIC [4]: > 250 µM | MIC [5]: > 250 µM | MIC [6]: 250 µM (≈ 148 µg/mL) | MIC [7]: > 250 µM | MIC [8]: 15.6 µM (≈ 9.23 µg/mL) | MIC [9]: 125 µM (≈ 74 µg/mL) | MIC [10]: 62.5 µM (≈ 37 µg/mL) | CC50 at 48 h [1]: 697 µM | MIC [11]: 31.2 µM (≈ 18.5 µg/mL) | MIC [12]: 250 µM (≈ 148 µg/mL) | MIC [13]: 31.2 µM (≈ 18.5 µg/mL) | MIC [14]: 125 µM (≈ 74 µg/mL) | MIC [2, 22]: 31.2 µM (≈ 18.5 µg/mL) | MIC [15, 24]: 62.5 µM (≈ 37 µg/mL)

COc1ccc(/C=C2\CN(Cc3ccccc3)C/C(=C\c3ccc(OC)cc3OC)C2=O)c(OC)c1 [3a]
MIC [2, 23]: >250 µM | MIC [2, 22]: > 250 µM

CCN1C/C(=C\c2ccc(OC)cc2)C(=O)/C(=C/c2ccc(OC)cc2)C1 [1a, 1-ethyl-3,5-bis((E)-4-methoxybenzylidene)piperidin-4-one]
CC50 at 48 h [1]: 314 µM | CC50 (range depending on the cell model) [16]: 64.9 to >1000 | MIC [2, 22]: 125 µM (≈ 45.4 µg/mL)

CCN1C/C(=C\c2ccc([N+](=O)[O-])cc2)C(=O)/C(=C/c2ccc([N+](=O)[O-])cc2)C1 [1d]
CC50 at 48 h [17]: 486 µM | CC50 at 48 h [18]: 364 µM | CC50 at 48 h [19]: 163 µM | CC50 at 48 h [20]: 314 µM | MIC [2, 22]: 250 µM (≈ 98.3 µg/mL) | CC50 at 48 h [21]: 95.4 µM

CCCCOc1ccc(/C=C2\CN(Cc3ccccc3)C/C(=C\c3ccc(OCCCC)c(OCCCC)c3)C2=O)cc1OCCCC [3iso-h]
MIC [4]: > 250 µM | MIC [5]: 125 µM (≈ 81.7 µg/mL) | MIC [6]: 250 µM (≈ 163 µg/mL) | MIC [7]: > 250 µM | MIC [8]: 15.6 µM (≈ 10.2 µg/mL) | MIC [9]: 125 µM (≈ 81.7 µg/mL) | MIC [10]: 125 µM (≈ 81.7 µg/mL) | CC50 at 48 h [1]: > 1000 µM | MIC [11]: 31.2 µM (≈ 20.4 µg/mL) | MIC [12]: 125 µM (≈ 81.7 µg/mL) | MIC [13]: 62.5 µM (≈ 40.9 µg/mL) | MIC [14]: 125 µM (≈ 81.7 µg/mL) | MIC [2, 22]: 62.5 µM (≈ 40.9 µg/mL) | MIC [15, 24]: 62.5 µM (≈ 40.9 µg/mL)
